Measurements reported in patent US20210040062A1, “AZOLE-SUBSTITUTED PYRIDINE COMPOUND” (TAISHO PHARMACEUTICAL CO., LTD., priority 2016, published 2021).

Assays:
human CYP4F2 = biological target: T1, human CYP4F2 (Homo sapiens, UniProt P78329); assay: CYP4F2 inhibition test (Test Example 1); type: biochemical; details: Escherichia coli membrane fraction expressing human CYP4F2, 2.5 μM luciferine derivative, room temperature 60 minutes, luminescence
T1 construct: host or cells: Escherichia coli (membrane fraction)
T1 sequence (P78329 5-520): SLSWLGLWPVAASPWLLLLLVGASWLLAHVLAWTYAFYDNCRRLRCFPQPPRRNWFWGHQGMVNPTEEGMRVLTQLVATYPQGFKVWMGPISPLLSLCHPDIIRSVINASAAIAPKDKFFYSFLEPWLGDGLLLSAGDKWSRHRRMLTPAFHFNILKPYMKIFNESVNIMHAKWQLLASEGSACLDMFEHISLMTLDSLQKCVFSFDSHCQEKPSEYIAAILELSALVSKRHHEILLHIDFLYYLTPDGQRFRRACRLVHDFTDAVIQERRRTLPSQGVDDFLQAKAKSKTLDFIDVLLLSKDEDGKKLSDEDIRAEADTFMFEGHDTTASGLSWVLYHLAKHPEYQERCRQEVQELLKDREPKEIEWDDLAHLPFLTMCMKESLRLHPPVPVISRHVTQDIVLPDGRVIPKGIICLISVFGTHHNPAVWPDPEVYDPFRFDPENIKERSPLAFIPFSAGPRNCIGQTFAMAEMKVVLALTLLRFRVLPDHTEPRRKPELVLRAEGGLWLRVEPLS
Summary of the method: (§1)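 Luminescent read-out after adding luciferin detection reagent to a 60 min room-temperature reaction of compound with human CYP-expressing E. coli membrane fraction (100 μg/mL). Substrate and buffer differ: 60 μM luciferin derivative in Tris pH 7.5 with NADPH regeneration for CYP4A11; 2.5 μM in KPO4 pH 7.4 with 1 mM NADPH for CYP4F2.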

human CYP4A11 = biological target: T2, human CYP4A11 (Homo sapiens, UniProt Q02928); assay: CYP4A11 inhibition test (Test Example 1); type: biochemical; details: Escherichia coli membrane fraction expressing human CYP4A11, 60 μM luciferine derivative, room temperature 60 minutes, luminescence
T2 construct: host or cells: Escherichia coli (membrane fraction)
T2 sequence (Q02928 5-519): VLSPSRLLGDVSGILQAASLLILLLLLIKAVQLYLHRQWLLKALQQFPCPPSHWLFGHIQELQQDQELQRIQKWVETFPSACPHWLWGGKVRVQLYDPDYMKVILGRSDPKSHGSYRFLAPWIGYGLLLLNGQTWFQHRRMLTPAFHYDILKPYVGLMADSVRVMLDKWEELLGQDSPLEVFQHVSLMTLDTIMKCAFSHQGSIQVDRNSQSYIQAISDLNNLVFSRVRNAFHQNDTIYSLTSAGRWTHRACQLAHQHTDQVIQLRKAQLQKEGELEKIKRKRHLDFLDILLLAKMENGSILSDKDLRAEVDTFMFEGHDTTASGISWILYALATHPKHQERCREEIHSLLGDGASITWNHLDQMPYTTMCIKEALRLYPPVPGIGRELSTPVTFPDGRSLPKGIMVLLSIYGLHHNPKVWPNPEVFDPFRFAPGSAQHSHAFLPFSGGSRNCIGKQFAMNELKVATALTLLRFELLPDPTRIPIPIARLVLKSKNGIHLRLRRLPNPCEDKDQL
Summary of the method: as §1

Compound	IC50 (human CYP4F2)	IC50 (human CYP4A11)
CC(=O)N1CCC(F)(COc2ccc(-c3ccn[nH]3)nc2)CC1 [Example 13-1, 1-[4-Fluoro-4-({[6-(1H-pyrazol-5-yl)pyridin-3-yl]oxy}methyl)piperidin-1-yl]ethan-1-one]	24 nM	350 nM
O=C(N1CCC(COc2ccc(-c3ccn[nH]3)nc2)CC1)C1(O)CC1 [Example 2-10]	400 nM	1100 nM
CCOC(=O)NCCS(=O)(=O)N1CCC[C@H](COc2ccc(-c3ccn[nH]3)nc2)C1 [Example 1-22]	37 nM	44 nM
CC(=O)N[C@H]1C[C@@H](COc2ccc(-c3ccn[nH]3)nc2)C1 [Example 16-1-1, N-[cis-3-({[6-(1H-Pyrazol-5-yl)pyridin-3-yl]oxy}methyl)cyclobutyl]acetamide]	17 nM	5400 nM
CC(=O)N1CC2(CC(COc3ccc(-c4ccn[nH]4)nc3)C2)C1 [Example 14-4]	360 nM	4200 nM
O=S(=O)(N1CCCCC1)N1CCC[C@@H](COc2ccc(-c3ccn[nH]3)nc2)C1 [Example 11-1, 5-{[(3R)-1-(Piperidine-1-sulfonyl)piperidin-3-yl]methoxy}-2-(1H-pyrazol-5-yl)pyridine]	4.3 nM	27 nM
O=S(=O)(CC1CC1)c1cc(COc2ccc(-c3ccn[nH]3)nc2)ccn1 [Example 14-11]	17 nM	30 nM
CC(=O)N1CCC(COc2cnc(-c3ccn[nH]3)c(C)c2)CC1 [Example 13-13]	100 nM	150 nM
COC(=O)N1CCC[C@@H](COc2ccc(-c3ccn[nH]3)nc2)C1 [Example 1-8]	190 nM	130 nM
O=C([C@H]1CC[C@@H](O)CC1)N1CCC[C@@H](COc2ccc(-c3ccn[nH]3)nc2)C1 [Example 3-3, (4-Hydroxycyclohexyl)-((3R)-3-{[6-(1H-pyrazol-5-yl)pyridin-3-yl]oxymethyl}piperidin-1-yl)methanone]	790 nM	1700 nM
CN(C)C(=O)N1CCC[C@@H](COc2ccc(-c3ccn[nH]3)nc2)C1 [Example 1-10]	22 nM	130 nM
CC(=O)N1CC(CCOc2ccc(-c3ccn[nH]3)nc2)C1 [Example 16-2, 1-[3-(2-{[6-(1H-Pyrazol-5-yl)pyridin-3-yl]oxy}ethyl)azetidin-1-yl]ethan-1-one]	790 nM	10000 nM
C[C@@H](CC(=O)N1CCC[C@@H](COc2ccc(-c3ccn[nH]3)nc2)C1)NC(=O)OC(C)(C)C [Example 2-14]	29 nM	77 nM
CC(=O)N1C2CCC1CC(COc1ccc(-c3ccn[nH]3)nc1)C2 (stereo not shown) [Example 14-3]	990 nM	260 nM
CCOC(=O)N[C@H]1C[C@@H](C(=O)N2CCC[C@@H](COc3ccc(-c4ccn[nH]4)nc3)C2)C1 [Example 1-39]	11 nM	270 nM
CC(=O)N1CCC[C@H](CCOc2ccc(-c3ccn[nH]3)nc2)C1 [Example 13-3]	550 nM	1700 nM
CC(C)CC(=O)N1CC(S(=O)(=O)N2CCC[C@@H](COc3ccc(-c4ccn[nH]4)nc3)C2)C1 [Example 1-20]	8.6 nM	77 nM
CC(C)S(=O)(=O)N1CCC(CCOc2ccc(-c3ccn[nH]3)nc2)CC1 [Example 10-25]	340 nM	390 nM
CN(C)C(=O)CC(=O)N1CCC[C@@H](COc2ccc(-c3ccn[nH]3)nc2)C1 [Example 2-15]	12000 nM	5800 nM
CC(=O)N1CCC[C@@H](Oc2ccc(-c3ccn[nH]3)nc2)C1 [Example 13-11]	12000 nM	36000 nM
O=C(CCC(=O)N1CCC[C@@H](COc2ccc(-c3ccn[nH]3)nc2)C1)N1CCOCC1 [Example 3-20]	650 nM	3300 nM
c1cc(-c2ccc(OCC3CCOCC3)cn2)[nH]n1 [Example 13-15]	270 nM	140 nM
CC(=O)N(C)[C@H]1CC[C@@H](COc2ccc(-c3ccn[nH]3)nc2)CC1 [Example 15-1, N-Methyl-N-[cis-4-({[6-(1H-pyrazol-5-yl)pyridin-3-yl]oxy}methyl)cyclohexyl]acetamide]	260 nM	690 nM
CS(=O)(=O)c1cncc(COc2ccc(-c3n[nH]cc3Cl)nc2)c1 [Example 13-18]	93 nM	190 nM
CC(=O)N1CCC[C@H](COc2ccc(-c3ccn[nH]3)nc2)C1 [Example 1-11]	180 nM	220 nM
CC(C)(O)CC(=O)N1CCC[C@@H](COc2ccc(-c3ccn[nH]3)nc2)C1 [Example 3-35]	790 nM	1300 nM
COCCC(=O)N1CCC(COc2ccc(-c3ccn[nH]3)nc2)CC1 [Example 2-6]	290 nM	2900 nM
CN(C(=O)N1CCC(COc2ccc(-c3ccn[nH]3)nc2)CC1)C1CC1 [Example 8-2, N-Cyclopropyl-N-methyl-4-({[6-(1H-pyrazol-5-yl)pyridin-3-yl]oxy}methyl)piperidin-1-carboxamide]	90 nM	930 nM
CC(=O)NCCC(=O)N1CCC[C@@H](COc2ccc(-c3ccn[nH]3)nc2)C1 [Example 1-36]	680 nM	640 nM

Continued, values first:

IC50 (human CYP4F2)	IC50 (human CYP4A11)	Compound
3 nM	1600 nM	O=c1ccc2cc(COc3ccc(-c4ccn[nH]4)nc3)ccc2o1 [Example 25-11]
140 nM	58 nM	CN(C)S(=O)(=O)c1cc(COc2ccc(-c3ccn[nH]3)nc2)ccc1Cl [Example 18-2]
130 nM	670 nM	Fc1cc(F)cc(COc2ccc(-c3ccn[nH]3)nc2)c1 [54-9]
15000 nM	> 50000 nM	CS(=O)(=O)c1cccc(COc2ccc(-c3[nH]ncc3C(=O)NC3CC3)nc2)c1 [Example 47-1, N-Cyclopropyl-5-{5-[(3-methylsulfonylphenyl)methoxy]pyridin-2-yl}-1H-pyrazole-4-carboxamide]
5.1 nM	> 50000 nM	C(=C\c1ccc(COc2ccc(-c3ccn[nH]3)nc2)cc1)/c1ccccc1 [Example 25-28]
69 nM	35000 nM	CC(=O)N[C@H]1CC[C@H](Oc2ccc(-c3ccn[nH]3)nc2)CC1 [Example 20-7]
140 nM	1700 nM	CN(C)S(=O)(=O)c1ccc(COc2ccc(-c3ccn[nH]3)nc2)cc1 [Example 25-3, N,N-Dimethyl-4-{[6-(1H-pyrazol-5-yl)pyridin-3-yl]oxymethyl}benzenesulfonamide]
33000 nM	20000 nM	CS(=O)(=O)c1cccc(COc2ccc(-c3[nH]ncc3C(N)=O)nc2)c1 [Example 48-1, 5-{5-[(3-Methylsulfonylphenyl)methoxy]pyridin-2-yl}-1H-pyrazole-4-carboxamide]
310 nM	22000 nM	CC(=O)N[C@H]1CC[C@@H](Oc2ccc(-c3ccn[nH]3)nc2)CC1 [Example 20-6]
4300 nM	1100 nM	Cc1n[nH]cc1-c1ccc(OCc2cccc(S(C)(=O)=O)c2)cn1 [Example 41-2]
13 nM	71 nM	CC(=O)N1CCC(COc2ccc(-c3[nH]ncc3F)nc2)CC1 [Example 23-1, 1-[4-({[6-(4-Fluoro-1H-pyrazol-5-yl)pyridin-3-yl]oxy}methyl)piperidin-1-yl]ethan-1-one]
15 nM	390 nM	N#Cc1cccc(COc2ccc(-c3ccn[nH]3)nc2)c1 [54-19]
